Like-named read-outs stand apart in the source and are kept apart here.

The test system of one test is MKL-2 cells (VP-MCC). Kind of test: qHTS cell viability (CellTiter-Glo, 72 h; primary and follow-up small molecule screen). The test is classed as cell-based, human. A general note: Quantitative high-throughput screening tests each substance at several concentrations.
In another test the test system is UISO cells (VN-MCC). The test is described as above. Type of test: cell-based, human.
Another test has as its system MCC13 cells (VN-MCC). The description is as above. Type of test: cell-based, human.
A further test relates to MCC26 cells (VN-MCC). The test is described as above. The test is classed as cell-based, human.
The subject of a further test is WAGA cells (VP-MCC). The description is as above. The test is classed as cell-based, human.
A further test relates to CRL-7250 cells. Kind of test: qHTS cell viability (CellTiter-Glo, 72 h; primary screen), control cell line. Type of test: cell-based.
The test system of the next test is HACAT cells. The description is as above. The test is classed as cell-based, human.
In another test the test system is MKL-1 cells (VP-MCC). In words: qHTS cell viability (CellTiter-Glo, 72 h; primary and follow-up small molecule screen). Type of test: cell-based, human.
The subject of another test is NIH-3T3 cells. Kind of test: qHTS cell viability (CellTiter-Glo, 72 h; primary screen), control cell line. The test is classed as cell-based, mouse.
A further test deals with HEK293T cells. Described as above. The test is classed as cell-based, human.

`C[C@H](CCC(=O)O)[C@H]1CC[C@H]2[C@@H]3[C@H](O)C[C@@H]4C[C@H](O)CC[C@]4(C)[C@H]3CC[C@]12C` [Chenodeoxycholic acid] registered an MKL2_AUC in the test on MKL-2 cells (VP-MCC) (area under the dose-response curve, MKL-2 cells, AUC<450 = reduced viability) of 427.388. The same compound came in with a UISO_AUC with UISO cells (VN-MCC) (area under the dose-response curve, UISO cells, AUC<450 = reduced viability) of 483.595. This compound also showed an MCC13_AUC with MCC13 cells (VN-MCC) (area under the dose-response curve, MCC13 cells, AUC<450 = reduced viability) of 458.762. Moreover, the MCC26_AUC in the test with MCC26 cells (VN-MCC) (area under the dose-response curve, MCC26 cells, AUC<450 = reduced viability) came out at 489.842. In the test on WAGA cells (VP-MCC) (area under the dose-response curve, WAGA cells, AUC<450 = reduced viability), the WAGA_AUC was found to be 440.562. The same compound registered a CRL7250_AUC with CRL-7250 cells (area under the dose-response curve, CRL7250 control cells, AUC<450 = reduced viability) of 462.86. In the test with HACAT cells (area under the dose-response curve, HACAT control cells, AUC<450 = reduced viability), the HACAT_AUC turned out to be 475.403. In the test with MKL-1 cells (VP-MCC) (area under the dose-response curve, MKL-1 cells, AUC<450 = reduced viability), this compound showed an MKL1_AUC of 439.87. In addition, the NIH3T3_AUC with NIH-3T3 cells (area under the dose-response curve, NIH3T3 control cells, AUC<450 = reduced viability) was 479.384. The compound further returned an HEK293T_AUC in the test on HEK293T cells (area under the dose-response curve, HEK293T control cells, AUC<450 = reduced viability) of 474.014.

In the case of `O=c1cccc2n1C[C@@H]1CNC[C@H]2C1` [Cytisine], in the test on MKL-2 cells (VP-MCC), the “Area under the dose-response curve (AUC) MKL-2 Replicate 1” value was found to be 465.6, the “Area under the dose-response curve (AUC) MKL-2 Replicate 2” value is given as 500.2, the “Area under the dose-response curve (AUC) MKL-2 Replicate 3” value was 495.6 and the MKL2_AUC worked out at 398.634. Also, in the test on UISO cells (VN-MCC), the “Area under the dose-response curve (AUC) UISO Replicate 1” value amounted to 456.3, the “Area under the dose-response curve (AUC) UISO Replicate 2” value is given as 469.0, the “Area under the dose-response curve (AUC) UISO Replicate 3” value was found to be 502.6 and the UISO_AUC amounted to 498.318. Also, in the test on MCC13 cells (VN-MCC), the “Area under the dose-response curve (AUC) MCC13 Replicate 1” value is reported as 466.2, the “Area under the dose-response curve (AUC) MCC13 Replicate 2” value worked out at 472.1, the “Area under the dose-response curve (AUC) MCC13 Replicate 3” value stood at 495.9 and the MCC13_AUC is recorded as 474.327. In the test on MCC26 cells (VN-MCC), the “Area under the dose-response curve (AUC) MCC26 Replicate 1” value is on record as 425.8, the “Area under the dose-response curve (AUC) MCC26 Replicate 2” value came to 426.1, the “Area under the dose-response curve (AUC) MCC26 Replicate 3” value was 461.0 and the MCC26_AUC is 479.664. In the test with WAGA cells (VP-MCC), the “Area under the dose-response curve (AUC) WAGA Replicate 1” value came to 496.1, the “Area under the dose-response curve (AUC) WAGA Replicate 2” value stood at 525.9, the “Area under the dose-response curve (AUC) WAGA Replicate 3” value amounted to 499.6 and the WAGA_AUC was found to be 346.525. The compound also showed a CRL7250_AUC with CRL-7250 cells of 469.524. The same compound returned an HACAT_AUC with HACAT cells of 465.853. Besides, in the test on MKL-1 cells (VP-MCC), the “Area under the dose-response curve (AUC) MKL-1 Replicate 1” value worked out at 469.7, the “Area under the dose-response curve (AUC) MKL-1 Replicate 2” value amounted to 497.8, the “Area under the dose-response curve (AUC) MKL-1 Replicate 3” value was determined as 481.7 and the MKL1_AUC is listed as 435.746. This compound returned an NIH3T3_AUC in the test with NIH-3T3 cells of 477.468. For the same compound, the HEK293T_AUC in the test on HEK293T cells turned out to be 476.432.

With `CC(C)CN(C[C@@H](O)[C@H](Cc1ccccc1)NC(=O)O[C@H]1CO[C@H]2OCC[C@H]21)S(=O)(=O)c1ccc(N)cc1` [Darunavir], the MKL2_AUC in the test with MKL-2 cells (VP-MCC) came to 413.603. In the test with UISO cells (VN-MCC), this compound returned a UISO_AUC of 505.158. The compound also displayed an MCC13_AUC in the test on MCC13 cells (VN-MCC) of 471.675. The same compound gave an MCC26_AUC in the test with MCC26 cells (VN-MCC) of 501.486. The compound further returned a WAGA_AUC in the test with WAGA cells (VP-MCC) of 433.192. This compound also showed a CRL7250_AUC in the test on CRL-7250 cells of 469.055. In addition, in the test on HACAT cells, the HACAT_AUC is listed as 465.16. For the same compound, the MKL1_AUC in the test on MKL-1 cells (VP-MCC) amounted to 420.268. For the same compound, the NIH3T3_AUC with NIH-3T3 cells is given as 481.353. This compound also had an HEK293T_AUC in the test on HEK293T cells of 472.283.

These data come from article PMC11822212, “High-throughput screening identifies Aurora kinase B as a critical therapeutic target for Merkel cell carcinoma” (Nature Communications, 2025).
